In patent US12077503B2, “Substituted cyclic amides and their use as herbicides” (FMC CORPORATION, priority 2015, dated 2024):

Columns and labels:
Assay in all cases: Test C preemergence
Type in all cases: in vivo
[1] = tested on: Galium (catchweed bedstraw, Galium aparine); details: for Plant response rating, Galium: scale 0 to 100, 0 no effect, 100 complete control
Outline: (§1)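 Herbicidal effect, applied preemergence to sown seeds or postemergence to 1- to 4-leaf plants, was scored visually 13 to 15 d after application, 0 to 100 versus controls.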

[2] = tested on: barnyardgrass (Echinochloa crus-galli); details: for Plant response rating, Barnyardgrass: scale 0 to 100, 0 no effect, 100 complete control
Outline: as §1

[3] = tested on: blackgrass (Alopecurus myosuroides); details: for Plant response rating, Blackgrass: scale 0 to 100, 0 no effect, 100 complete control
Outline: as §1

corn (Zea mays) = details: for Plant response rating, Corn: scale 0 to 100, 0 no effect, 100 complete control
Outline: as §1

[4] = tested on: crabgrass, large (large crabgrass, Digitaria sanguinalis); details: for Plant response rating, Crabgrass, Large: scale 0 to 100, 0 no effect, 100 complete control
Outline: as §1

[5] = tested on: foxtail, giant (giant foxtail, Setaria faberii); details: for Plant response rating, Foxtail, Giant: scale 0 to 100, 0 no effect, 100 complete control
Outline: as §1

[6] = tested on: johnsongrass (Sorghum halepense); details: for Plant response rating, Johnsongrass: scale 0 to 100, 0 no effect, 100 complete control
Outline: as §1

[7] = tested on: lambsquarters (Chenopodium album); details: for Plant response rating, Lambsquarters: scale 0 to 100, 0 no effect, 100 complete control
Outline: as §1

[8] = tested on: morningglory (Ipomoea coccinea); details: for Plant response rating, Morningglory: scale 0 to 100, 0 no effect, 100 complete control
Outline: as §1

[9] = tested on: nutsedge, yellow (yellow nutsedge, Cyperus esculentus); details: for Plant response rating, Nutsedge, Yellow: scale 0 to 100, 0 no effect, 100 complete control
Outline: as §1

[10] = tested on: oilseed rape (Brassica napus); details: for Plant response rating, Oilseed Rape: scale 0 to 100, 0 no effect, 100 complete control
Outline: as §1

[11] = tested on: pigweed (Amaranthus retroflexus); details: for Plant response rating, Pigweed: scale 0 to 100, 0 no effect, 100 complete control
Outline: as §1

[12] = tested on: ragweed (common ragweed, Ambrosia elatior); details: for Plant response rating, Ragweed: scale 0 to 100, 0 no effect, 100 complete control
Outline: as §1

[13] = tested on: ryegrass, Italian (Italian ryegrass, Lolium multiflorum); details: for Plant response rating, Ryegrass, Italian: scale 0 to 100, 0 no effect, 100 complete control
Outline: as §1

soybean (Glycine max) = details: for Plant response rating, Soybean: scale 0 to 100, 0 no effect, 100 complete control
Outline: as §1

[14] = tested on: velvetleaf (Abutilon theophrasti); details: for Plant response rating, Velvetleaf: scale 0 to 100, 0 no effect, 100 complete control
Outline: as §1

[15] = tested on: waterhemp (common waterhemp, Amaranthus rudis); details: for Plant response rating, Waterhemp: scale 0 to 100, 0 no effect, 100 complete control
Outline: as §1

[16] = tested on: wheat (winter wheat, Triticum aestivum); details: for Plant response rating, Wheat: scale 0 to 100, 0 no effect, 100 complete control
Outline: as §1

[17] = 31 g ai/ha, 0 is no effect, 100 is complete control

Cc1ccc(C2CN(C)C(=O)C2C(=O)Nc2ccccc2C(F)(F)F)cc1 (stereo not drawn) [Compound 665]
98: Plant response rating, Barnyardgrass ([2]; 125 g ai/ha) | Plant response rating (scale of 0 to 100), Crabgrass, Large [4, 17] | Plant response rating, Foxtail, Giant ([5]; 125 g ai/ha) | Plant response rating, Foxtail, Giant ([5]; 250 g ai/ha)
70: Plant response rating, Corn (corn (Zea mays); 250 g ai/ha) | Plant response rating, Lambsquarters ([7]; 125 g ai/ha) | Plant response rating, Ragweed ([12]; 125 g ai/ha) | Plant response rating, Velvetleaf ([14]; 250 g ai/ha)
65: Plant response rating, Ryegrass, Italian ([13]; 125 g ai/ha) | Plant response rating, Waterhemp ([15]; 125 g ai/ha)
45: Plant response rating, Johnsongrass ([6]; 250 g ai/ha) | Plant response rating, Lambsquarters ([7]; 62 g ai/ha)
85: Plant response rating (scale of 0 to 100), Barnyardgrass [2, 17] | Plant response rating, Lambsquarters ([7]; 250 g ai/ha) | Plant response rating, Oilseed Rape ([10]; 250 g ai/ha) | Plant response rating, Waterhemp ([15]; 250 g ai/ha)
50: Plant response rating, Pigweed ([11]; 125 g ai/ha) | Plant response rating, Pigweed ([11]; 250 g ai/ha) | Plant response rating (scale of 0 to 100), Waterhemp [15, 17] | Plant response rating, Wheat ([16]; 62 g ai/ha) | Plant response rating, Wheat ([16]; 125 g ai/ha)
30: Plant response rating (scale of 0 to 100), Oilseed Rape [10, 17] | Plant response rating (scale of 0 to 100), Ryegrass, Italian [13, 17]
55: Plant response rating, Ragweed ([12]; 62 g ai/ha)
75: Plant response rating, Corn (corn (Zea mays); 125 g ai/ha) | Plant response rating, Ragweed ([12]; 250 g ai/ha)
100: Plant response rating, Barnyardgrass ([2]; 250 g ai/ha) | Plant response rating, Crabgrass, Large ([4]; 62 g ai/ha) | Plant response rating, Crabgrass, Large ([4]; 125 g ai/ha) | Plant response rating, Crabgrass, Large ([4]; 250 g ai/ha)
10: Plant response rating, Corn (corn (Zea mays); 62 g ai/ha) | Plant response rating (scale of 0 to 100), Johnsongrass [6, 17] | Plant response rating (scale of 0 to 100), Lambsquarters [7, 17] | Plant response rating, Morningglory ([8]; 250 g ai/ha) | Plant response rating (scale of 0 to 100), Soybean (soybean (Glycine max); [17]) | Plant response rating, Soybean (soybean (Glycine max); 62 g ai/ha) | Plant response rating, Soybean (soybean (Glycine max); 250 g ai/ha)
95: Plant response rating, Barnyardgrass ([2]; 62 g ai/ha) | Plant response rating, Foxtail, Giant ([5]; 62 g ai/ha)
0: Plant response rating (scale of 0 to 100), Corn (corn (Zea mays); [17]) | Plant response rating (scale of 0 to 100), Morningglory [8, 17] | Plant response rating (scale of 0 to 100), Nutsedge, Yellow [9, 17] | Plant response rating, Nutsedge, Yellow ([9]; 62 g ai/ha) | Plant response rating, Nutsedge, Yellow ([9]; 125 g ai/ha) | Plant response rating, Nutsedge, Yellow ([9]; 250 g ai/ha) | Plant response rating (scale of 0 to 100), Pigweed [11, 17] | Plant response rating, Soybean (soybean (Glycine max); 125 g ai/ha)
40: Plant response rating (scale of 0 to 100), Ragweed [12, 17] | Plant response rating, Waterhemp ([15]; 62 g ai/ha)
80: Plant response rating, Oilseed Rape ([10]; 125 g ai/ha)
15: Plant response rating, Morningglory ([8]; 62 g ai/ha) | Plant response rating (scale of 0 to 100), Wheat [16, 17]
25: Plant response rating, Johnsongrass ([6]; 62 g ai/ha) | Plant response rating, Johnsongrass ([6]; 125 g ai/ha)
35: Plant response rating, Velvetleaf ([14]; 62 g ai/ha)
20: Plant response rating, Morningglory ([8]; 125 g ai/ha) | Plant response rating (scale of 0 to 100), Velvetleaf [14, 17]
60: Plant response rating (scale of 0 to 100), Blackgrass [3, 17] | Plant response rating, Blackgrass ([3]; 62 g ai/ha) | Plant response rating, Oilseed Rape ([10]; 62 g ai/ha) | Plant response rating, Pigweed ([11]; 62 g ai/ha) | Plant response rating, Ryegrass, Italian ([13]; 62 g ai/ha) | Plant response rating, Ryegrass, Italian ([13]; 250 g ai/ha) | Plant response rating, Velvetleaf ([14]; 125 g ai/ha)
90: Plant response rating (scale of 0 to 100), Galium [1, 17] | Plant response rating, Galium ([1]; 62 g ai/ha) | Plant response rating, Galium ([1]; 125 g ai/ha) | Plant response rating, Galium ([1]; 250 g ai/ha) | Plant response rating, Blackgrass ([3]; 125 g ai/ha) | Plant response rating, Blackgrass ([3]; 250 g ai/ha) | Plant response rating (scale of 0 to 100), Foxtail, Giant [5, 17] | Plant response rating, Wheat ([16]; 250 g ai/ha)
